# In patent US6900234B1, “Synergistic therapeutic compositions and methods” (Pfizer, Inc., priority 1990, dated 2005):
# Legend:
# Male Hartley guinea pigs = experiment: Mean arterial pressure lowering (AOC-MAP) in conscious sodium-depleted guinea pigs after i.v. dosing; format: in vivo, guinea pig; set-up: unit not given here
# Procedure: Male Hartley guinea pigs weighing between 250 and 300 g were obtained from Charles River Laboratories, Lakeview, N.J. The guinea pigs were allowed to acclimate to their environment for at least two weeks. Then, they were placed on a low sodium diet (Purina Modified Guinea Pig Chow, no sodium added) for 14 days and were given injections of furosemide (Lasix® 2 mg/kg, i.m.) on three non-consecutive days. At least 24 hours prior to experimentation, the animals were anesthetized with xylazine (Rompun®, 10 mg/kg, s.c.) and ketamine (Vetalar®, 80 mg/kg, i.m.) and, using aseptic technique, cannulae (PE-50) were implanted into the aorta via the right carotid artery for direct measurement of mean arterial pressure (MAP). Cannulae (PE-50) were also placed into the left jugular vein for intravenous compound administration. Both catheters were exteriorized at the intrascapular region of the animal's back and flushed with a heparinized dextrose solution. To prevent the formation of clots, each cannula was filled with heparin at a concentration of 1000 units/ml. After surgery, an antibacterial, trimethoprim/sulfamethoxazole (Di-Trim®, 30 mg/kg, s.c.), was given to the animals. The animals were allowed to recover with water and no-sodium chow administered ad libitum. On the day of the experiment, each guinea pig was given an additional injection of furosemide (6 mg/kg, i.m.) to accelerate sodium loss and was placed in,a sound-proof, ventilated box with one-way glass for observation. Mean arterial pressure was monitored with a Statham 23DB strain gauge pressure transducer previously calibrated using a mercury manometer. The arterial pressure waveform and derived heart rate were continuously recorded on a Grass Model 7D osciliograph. Arterial pressure waveform samples were obtained approximately every 20 seconds using an IBM PS/2 model 30 computer equipped with a custom algorithm designed to calculate mean arterial pressure from the integrated waveform. Values were obtained for a period of at least one hour prior to and 2 hours (usually 4 hours) after dosing. The test compounds were infused intravenously followed by a 250 μl flush with heparinized dextrose solution.
# Dose response curves for the renin inhibitor (RI) (0.3 to 3.0 mg/kg, i.v.) and captopril (0.03 to 1.0 mg/kg, i.v.) were obtained (n=4 to 8) in order to quantitate baseline responses to each drug. In experiments where the renin inhibitor and captopril were co-administered, the renin inhibitor was given first immediately followed by captopril. Doses of renin inhibitor and angiotensin converting enzyme inhibitor, when given together, were chosen on the basis of causing submaximal hypotensive effects. Therefore, the contributory effect of each drug could be quantitated by integration and compared to the expected effect to determine whether additive or synergistic responses had occurred.
# Employing the procedure described above, the changes in mean arterial pressure (ΔMAP) for the renin inhibitor (RI), the ACE inhibitor (captopril) and the renin inhibitor (RI), plus the ACE inhibitor (captopril) were obtained for various doses and are shown in Table I, below. The AOC-MAP is the area over the dose response curve for each dose calculated using the trapezoidal method.
# The data in Table I were obtained by averaging the Δ MAP of all animals for each dose prior to calculating the AOC-MAP. When the data contained in Table I was reviewed for the purpose of calculating the AOC-MAP by averaging the area over the dose response curve for each animal per dose, it was discovered that the AOC-MAP for 0.5 mg/kg RI plus 0.05 mg/kg captopril inadvertently reflected the data based on only three of the six subject test animals. Shown below in Table II are the AOC-MAP data for the experiments reported in Table I, which data is now the result of determining the area over the dose response curve for each animal per dose and averaging the AOC-MAP, as well as determining the standard deviation. […]
# [1] = reported in Oldham et al., J. Cardiovasc. Pharmacol. 6: 672-677 (1984); cited from earlier work
# [2] = Table III, 0.30 mg/kg i.v., average of the area for each animal per dose
# [3] = Table III, 1.0 mg/kg i.v., average of the area for each animal per dose
# [4] = Table I, 1.0 mg/kg i.v., ΔMAP of all animals averaged per dose before calculating the area
# [5] = Table II, 1.0 mg/kg i.v., average of the area for each animal per dose
Compound,AOC-MAP (Male Hartley guinea pigs; [2]),AOC-MAP (Male Hartley guinea pigs; [3]),"AOC-MAP (Male Hartley guinea pigs; Table III, 3.0 mg/kg i.v., average of the area for each animal per dose)","AOC-MAP (Male Hartley guinea pigs; Table I, 0.3 mg/kg i.v., ΔMAP of all animals averaged per dose before calculating the area (trapezoidal))",AOC-MAP (Male Hartley guinea pigs; [4]),"AOC-MAP (Male Hartley guinea pigs; Table I, 3.0 mg/kg i.v., ΔMAP of all animals averaged per dose before calculating the area)","AOC-MAP (Male Hartley guinea pigs; Table II, 0.3 mg/kg i.v., average of the area for each animal per dose)",AOC-MAP (Male Hartley guinea pigs; [5]),"AOC-MAP (Male Hartley guinea pigs; Table II, 3.0 mg/kg i.v., average of the area for each animal per dose)",hypotensive effect of captopril injected during H77 infusion [1],"AOC-MAP (Male Hartley guinea pigs; Table I, 0.03 mg/kg i.v., ΔMAP of all animals averaged per dose before calculating the area)","AOC-MAP (Male Hartley guinea pigs; Table I, 0.10 mg/kg i.v., ΔMAP of all animals averaged per dose before calculating the area)","AOC-MAP (Male Hartley guinea pigs; Table I, 0.30 mg/kg i.v., ΔMAP of all animals averaged per dose before calculating the area)","AOC-MAP (Male Hartley guinea pigs; Table II, 0.03 mg/kg i.v., average of the area for each animal per dose)","AOC-MAP (Male Hartley guinea pigs; Table II, 0.10 mg/kg i.v., average of the area for each animal per dose)","AOC-MAP (Male Hartley guinea pigs; Table II, 0.30 mg/kg i.v., average of the area for each animal per dose)","AOC-MAP (Male Hartley guinea pigs; Table III, 0.03 mg/kg i.v., average of the area for each animal per dose)","AOC-MAP (Male Hartley guinea pigs; Table III, 0.10 mg/kg i.v., average of the area for each animal per dose)"
CCCCc1nc(Cl)c(CO)n1Cc1ccc(-c2ccccc2-c2nn[nH]n2)cc1 [Dup 753],−125,−549,−1575,–,–,–,–,–,–,–,–,–,–,–,–,–,–,–
"CSCC(NC(=O)C(Cc1ccccc1)NC(=O)N1CCOCC1)C(=O)NC(CC1CCCCC1)C(O)C(=O)OC(C)C (stereo not drawn) [RI, [alpha-R[alpha-R*,beta-S*(S*,S*)]-alpha-hydroxy-beta-[[2-[[2-(4-morpholin-1-carboxamido)-1-oxo-3-phenylpropyl]amino[-3-methylthio-1-oxo-propyl]amino]-cyclohexanebutanoic acid, isopropyl ester]",–,–,–,−256,−496,−1829,−310,−568,−1990,–,–,–,–,–,–,–,–,–
C[C@H](CS)C(=O)N1CCC[C@H]1C(=O)O [captopril],−826,−3272,–,–,−3272,–,–,−3272,–,small additional hypotensive effect,−99,−289,−1263,−96,−283,−1036,−96,−269
